Results as given in the NIST ThermoML archive (doi:10.1016/j.fluid.2011.07.014).
Numbers after ± are expanded uncertainties.

Conditions: Liquid, Ebulliometric method (Recirculating still)

CC(C)=C(C)C [2,3-dimethyl-2-butene]
Conditions | vapor or sublimation pressure [kPa]
336.5 K | 73.5 ± 1.1
338.2 K | 77.5 ± 1.1
340.6 K | 84.2 ± 1.1
342.65 K | 90.2 ± 1.1
344.2 K | 94.7 ± 1.1
346.24 K | 101.2 ± 1.1
347.65 K | 105.3 ± 1.2
350.1 K | 113.9 ± 1.2
353.46 K | 125.5 ± 1.2
355.35 K | 133.3 ± 1.2
357.22 K | 140.4 ± 1.3
362.8 K | 164.8 ± 1.3
365.76 K | 179.5 ± 1.3
368.05 K | 190.9 ± 1.4
370.36 K | 202.8 ± 1.4
373.18 K | 218.8 ± 1.4
375.2 K | 230.4 ± 1.5
376.5 K | 238.5 ± 1.5
379.15 K | 255.1 ± 1.5
381.62 K | 271.2 ± 1.6
383.05 K | 281.3 ± 1.6
384.7 K | 292.1 ± 1.6
386.65 K | 306.8 ± 1.7
388.2 K | 318.4 ± 1.7
